Consider four molecules from patent US8323656B2, “Antigen determinant of rheumatoid arthritis-specific autoantibody and use thereof” (priority 2007, dated 2012).

The subject of assay [1] is RA-specific antibodies (4 anti-CCP2-positive sera). The assay is described as follows: Indirect (inhibition) ELISA: cross-reactivity of analytes with RA-specific antibodies, immobilized CCP2 as capture antigen. Format: binding, human. To be noted: unpublished epitope mapping studies; result in words.
Assay [2] shares this test system. Described as above. Type of assay: binding, human. Further details: Cross-reactivity of antibodies with the named analyte: concentration or dose not given beside the values. To be noted: for Cross-reactivity (%) of RA-specific antibody, modified α-amino acid: alkylation + acetylation: acetylated amino acid methyl ester of the amino acid named; for Cross-reactivity (%) of RA-specific antibody, modified α-amino acid: acetylation: acetylated derivative of the amino acid named; for Cross-reactivity (%) of RA-specific antibody, α-amino acid: unmodified α-amino acid, 0 = cross-reactivity less than 1%. An excerpt:
A complete set of 21 amino acids and their derivatives were used as analytes to determine if any analyte inhibited the action of the detector antibody in binding to the capture antigen. Determination was made by observation at the single AA level through a series of moving windows of different derivatization. Following this procedure ensures that no antigenic elements of the epitope are missed as long as the possible AA derivatives are available. The analysis began in the fluid phase, wherein initially, the detector antibody was incubated with each of the analytes. After overnight incubation at 4° C., 100 μl of analyte preadsorbed detector antibody per well were added into 96-well microplate which immobilized CCP2 on the surface, and was incubated for 1 hour at room temperature with shaking. […] The reaction was stopped by adding 100 μl of 0.5 M H2SO4 per well and the results were estimated at A450 nm.
The concept of indirect ELISA was based upon an inhibition test between an unknown amount of analyte and a known amount of immobilized antigen for a limited number of detector antibody binding-sites. If the contents of detector antibody and immobilized antigen are kept constant, the distribution of detector antibody between immobilized antigen bound detector antibody and analyte bound detector antibody is dependent upon the amount of sample analyte. The mass of immobilized antigen bound detector antibody is inversely proportional to the amount of analyte bound detector antibody.
As described in FIG. 1, Amino Acid Profiles for the Antigenic Determinant, ELISA was carried out with sera from Euro-diagnostica (serum 1) and from three patients (serum 2, 3, and 4) with RA to CCP2 positive at various concentrations of different amino acids. […] The horizontal line at 100% represents the control percent binding of the CCP2 to the antibody.
As described in FIG. 2, Acetylamino Acid Profiles for the Antigenic Determinant, ELISA was carried out with sera from Euro-diagnostica (serum 1) and from three patients (serum 2, 3, and 4) with RA to CCP2 positive at various concentrations of different acetylamino acids. […] The horizontal line at 100% represents the control percent binding of the CCP2 to the antibody.
As described in FIG. 3, Alkylamino Acid Profiles for the Antigenic Determinant, ELISA was carried out with sera from Euro-diagnostica (serum 1) and from three patients (serum 2, 3, and 4) with RA to CCP2 positive at various concentrations of different alkylamino acids. […] The horizontal line at 100% represents the control percent binding of the CCP2 to the antibody.
As described in FIG. 4, Acetylamino Acid Methyl Ester Profiles for the Antigenic Determinant, ELISA was carried out with sera from Euro-diagnostica (serum 1) and from three patients (serum 2, 3, and 4) with RA to CCP2 positive at various concentrations of different acetylamino acid methyl esters. […] The horizontal line at 100% represents the control percent binding of the CCP2 to the antibody.

[3] abbreviates: methyl esterified (Me) derivative of the amino acid named, 0 = less than 1%.

In the case of `NC(=O)NCCC[C@H](N)C(=O)O` [Citrulline], the “Binding of RA-specific antibodies” value in assay [1] is given as “does not bind”. Further, the “Inhibition of antibody binding to the immobilized CCP2” value in assay [2] (FIG. 1 and 2, analyte at 50 mM, 4 sera, result in words) was “limited capability to inhibit”. Also, in assay [2] (0 = less than 1%), the “Cross-reactivity (%) of RA-specific antibody, modified α-amino acid: alkylation + acetylation” value (“Cross-reactivity (%) … alkylation + acetylation” below) is reported as 100%. Further, in assay [2] (0 = less than 1%), the “Cross-reactivity (%) of RA-specific antibody, modified α-amino acid: acetylation” value amounted to 74%. The “Cross-reactivity (%) of RA-specific antibody, modified α-amino acid: alkylation” value in assay [2] (butyl esterified (Be) derivative) is listed as “^Be124%”; in assay [2] (ethyl esterified (Ee) derivative), “^Ee72%”; in assay [2] (setting [3]) it was “^Me81%”; in assay [2] (propyl esterified (Pe) derivative) it was “^Pe115%”. Also, the “Cross-reactivity of antibodies with the named analyte” value in assay [2] (the analyte itself is named) is recorded as “zero”. In assay [2], the “Cross-reactivity (%) of RA-specific antibody, α-amino acid” value is reported as 0%.

Regarding `NC(=O)CC[C@H](N)C(=O)O` [Glutamine], in assay [2] (0 = less than 1%), the “Cross-reactivity (%) … alkylation + acetylation” value is given as 0% and the “Cross-reactivity (%) of RA-specific antibody, modified α-amino acid: acetylation” value was determined as 0%. The “Cross-reactivity (%) of RA-specific antibody, modified α-amino acid: alkylation” value in assay [2] (setting [3]) was “^Me0%”. In addition, in assay [2], the “Cross-reactivity (%) of RA-specific antibody, α-amino acid” value stood at 0%.

In the case of `NCCCC[C@H](N)C(=O)O` [Lysine], in assay [2] (0 = less than 1%), the “Cross-reactivity (%) … alkylation + acetylation” value was 0% and the “Cross-reactivity (%) of RA-specific antibody, modified α-amino acid: acetylation” value turned out to be 0%. The “Cross-reactivity (%) of RA-specific antibody, modified α-amino acid: alkylation” value in assay [2] (setting [3]) is on record as “^Me0%”. For the same molecule, the “Cross-reactivity (%) of RA-specific antibody, α-amino acid” value in assay [2] came out at 0%.

Turning to `NCC(=O)O` [Glycine], in assay [2] (0 = less than 1%), the “Cross-reactivity (%) … alkylation + acetylation” value amounted to 0% and the “Cross-reactivity (%) of RA-specific antibody, modified α-amino acid: acetylation” value worked out at 0%. In addition, the “Cross-reactivity (%) of RA-specific antibody, modified α-amino acid: alkylation” value in assay [2] (setting [3]) was “^Me0%”. In addition, the “Cross-reactivity (%) of RA-specific antibody, α-amino acid” value in assay [2] was found to be 0%.
